Key:
[1] = system: human sclera-choroid-RPE (SCRPE); assay: In vitro transport of transporter substrate cassette across human sclera-choroid-RPE; settings: human SCRPE; for sclera to retina transport in presence of transporter specific inhibitor (in words): inhibitor cocktail 500 μM; for sclera to retina transport compared with retina to sclera transport (in words): substrate cassette 100 μM
Method: (§1) In vitro transport studies across human cornea and sclera-choroid-RPE (SCRPE) were carried out according to previously published method using the cassette dosing approach. Briefly, cassette of drug transporter substrate including Gly-Sar (PEPT), L-tryptophan (ATB^0+), MPP^+ (OCT), and phenyl acetic acid (MCT) at concentration of 100 μM in assay buffer was prepared. Briefly, the human eyes were washed with assay buffer and cleaned from muscle and conjunctiva tissues, and anterior and posterior parts were separated by giving circumferential cut behind the limbus. Small sclera part was left with cornea, which helps in mounting of cornea on Ussing chambers. Neural retina was separated from the choroid-RPE by filling the eye cup with assay buffer, and floating retina was collected. After separation of retina, eye cup was divided into two rectangular pieces (˜1.5×1.5 cm) of sclera-choroid-RPE. Isolated tissues were mounted on modified Ussing chambers (Navicyte, Sparks, Nev.) such that the episcleral side of SCRPE or epithelial side of cornea was facing the donor chamber and retinal side or endothelial side of cornea is facing the receiver chamber. To study the effect of directionality on transport, one set of Ussing chambers mounted so that sclera side facing the donor side and another set was mounted so that choroid-RPE facing the donor side. The effect of directionality of transport across cornea was not evaluated. The chambers were filled with 1.5 ml of assay buffer with (donor side) or without (receiver side) the cocktail of drug transporter substrates. For study of effect of transporter inhibitors, cocktail mixture (500 μM) of transporter inhibitor was added on both donor and acceptor side.
(§2) During the transport study, the bathing fluids were maintained at 37° C. using a circulating warm water and pH 7.4 using 95% air-5% CO2 aeration. Samples were collected (200 μL) form receiver side every hour for 6 hr and the lost volume was compensated with fresh assay buffer pre-equilibrated at 37° C. The drug levels were analyzed using a LC-MS/MS assay. Permeation data were corrected for dilution of the receiver solution with sample volume replenishment.
Analytes concentrations in transport study samples were analyzed using LC-MS/MS method after 5-fold dilution with acetonitrile to reduce the salt concentrations. Cassette analysis method was developed for simultaneous analysis of Gly-Sar, L-tryptophan and MPP^+. Phenyl acetic acid was analyzed separately in negative ionization method and normal phase separation method. An API-3000 triple quadrupole mass spectrometry (Applied Biosystems, Foster City, Calif., USA) coupled with a PerkinElmer series-200 liquid chromatography (Perkin Elmer, Walthm, Mass., USA) system was used for analysis. Gly-Sar, L-tryptophan and MPP^+ were separated on Supelco C-5 column (2.1×10 mm, 3 μm) using water containing 0.1% formic acid (A) and acetonitrile:methanol (50:50 v/v) containing 0.1% formic acid (B) as mobile phase and a linear gradient elution at a flow rate of 0.3 ml/min with total run time of 9 min. Phenyl acetic acid was separated in normal phase separation mode using Obelisc-N silica column (2.1×10 mm, 3 μM) using 5 mM ammonium formate, pH 3.5 (A) and acetonitrile (B) as mobile phase in linear gradient mode at flow rate of 0.3 ml with total run time of 6 min. Gly-Sar, L-tryptophan, and MPP^+ were analyzed in positive ionization mode with following multiple reaction monitoring (MRM) transitions: 147→90 (Gly-Sar); 205→188 (L-tryptophan); 170→128 (MPP^+). Phenyl acetic acid was analyzed in negative ionization mode with following multiple reaction monitoring (MRM) transitions: 135→91 (Phenyl acetic acid).

[2] = system: human cornea; assay: In vitro transport of transporter substrate cassette across human cornea; settings: for transport in presence of transporter inhibitor (in words): apical to basal, inhibitor cocktail 500 μM
Method: as §1, with “The effect of directionality of transport across cornea was not evaluated.” left out
as §2
Analytes concentrations in transport study samples were analyzed using LC-MS/MS method after 5-fold dilution with acetonitrile to reduce the salt concentrations. […] Phenyl acetic acid was analyzed separately in negative ionization method and normal phase separation method. […] Gly-Sar, L-tryptophan, and MPP^+ were analyzed in positive ionization mode with following multiple reaction monitoring (MRM) transitions: 147→90 (Gly-Sar); 205→188 (L-tryptophan); 170→128 (MPP^+). Phenyl acetic acid was analyzed in negative ionization mode with following multiple reaction monitoring (MRM) transitions: 135→91 (Phenyl acetic acid).

[3] = system: calf sclera-choroid-RPE (SCRPE); assay: In vitro transport of substrate cassette across normoxic and hypoxic calf SCRPE; settings: for apparent permeability (Papp) across hypoxic vs normoxic tissue (in words) / transport across hypoxic vs normoxic tissue (in words): calf SCRPE; for transport across hypoxic vs normoxic tissue (in words): cassette 100 μM
Text: (§3) Animals used in this study were those that were sacrificed as part of other experiments approved by the Institutional Animal Care Committee of the Colorado State University (Fort Collins) and University of Colorado Anschutz Medical campus. Hypoxic and normoxic calf eyes were obtained from the Department of Physiology, School of Veterinary Medicine, Colorado State University (Fort Collins, Colo.). Briefly, 1 day old male Holstein calves (n=4) were kept in hypobaric hypoxic chambers (PB=445 mm Hg) for 2 weeks. For control experiment, age matched calves (n=4) were kept at ambient altitude (PB=650 mm Hg) and normoxia for two weeks. Hypoxic and normoxic rat eyes were obtained from the Department of Medicine, University of Colorado Anschutz Medical campus (Aurora, Colo.). Sprague Dawley rats (n=4) were maintained in hypobaric hypoxic chambers (PB=380 mm Hg) for 6 weeks and age matched controls were kept at ambient pressure and normoxia.
(§4) In vitro transport studies across hypoxic and control calf cornea and sclera-choroid-RPE (SCRPE) were carried using cassette dosing approach. A cassette of drug transporter substrates, Gly-Sar (PEPT), valacylovir (ATB^0+), MPP^+ (OCT), and phenylacetic acid (MCT) at a concentration of 100 μM each in assay buffer was prepared. Briefly, the calf eyes were harvested immediately after euthanasia and transferred to the laboratory on ice. Upon arrival in the lab, the eyes were washed with assay buffer and cleaned from muscle and unwanted tissues. Anterior and posterior parts were separated by circumferential cut at the limbus. Vitreous was removed and the neural retina was separated from the choroid-RPE by filling the eye cup with assay buffer. The retina afloat in assay buffer was isolated and the eye cup was divided into two pieces (˜1.5×1.5 cm) of sclera-choroid-RPE. Isolated tissues were mounted on modified Ussing chambers (Navicyte, Sparks, Nev.) such that the episcleral side of SCRPE or epithelial side of cornea was facing the donor chamber and retinal side or endothelial side of the cornea was facing the receiver chamber. The chambers were filled with 1.5 ml of assay buffer at 37° C. with (donor side) or without (receiver side) the cocktail of drug transporter substrates. For the study of effect of transporter inhibitors, cocktail mixture (500 μM) of transporter inhibitors was added on both donor and acceptor sides.
(§5) During the transport study, the bathing fluids were maintained at 37° C. using circulating warm water. The pH of the fluids was maintained at pH 7.4 using 95% air-5% CO2 aeration. Samples were collected (200 μL) from receiver side every hour for 6 hours and the removed volume was replaced with fresh assay buffer pre-equilibrated to 37° C. Drug levels were analyzed using a LC-MS/MS assay. Permeation data were corrected for dilution of the receiver concentrations with sample volume replenishment.
(§6) Analyte concentrations in transport study samples were measured using LC-MS/MS method after 5-fold dilution with acetonitrile to reduce the salt concentrations. A cassette analysis method was developed for simultaneous analysis of Gly-Sar, valacylovir, and MPP Phenyl acetic acid was analyzed separately with a negative ionization method and a normal phase separation method. An API-3000 triple quadrupole mass spectrometry (Applied Biosystems, Foster City, Calif., USA) coupled with a PerkinElmer series-200 liquid chromatography (Perkin Elmer, Waltham, Mass., USA) system was used for analysis. Gly-Sar, valacylovir and MPP were separated on Supelco C-5 column (2.1×10 mm, 3 μm) using water containing 0.1% formic acid (A) and acetonitrile:methanol (50:50 v/v) containing 0.1% formic acid (B) as mobile phase. A linear gradient elution at a flow rate of 0.3 ml/min with a total run time of 9 min was employed. Phenyl acetic acid was separated in normal phase separation mode on Obelisc-N silica column (2.1×10 mm, 3 μM) using 5 mM ammonium formate at pH 3.5 (A) and acetonitrile (B) as mobile phase.

[4] = system: calf cornea; assay: In vitro transport of substrate cassette across normoxic and hypoxic calf cornea; settings: for apparent permeability (Papp) across hypoxic vs normoxic tissue (in words) / transport across hypoxic vs normoxic tissue (in words): calf cornea; for transport across hypoxic vs normoxic tissue (in words): cassette 100 μM
Text: as §3, §4, §5, §6

With C[n+]1ccc(-c2ccccc2)cc1.[I-] [MPP^+, MPP^+ iodide] the “sclera to retina transport in presence of transporter specific inhibitor (in words)” value [1] was “significantly inhibited”, the “inhibition of sclera to retina transport in presence of specific inhibitors” value ([1]; inhibitor cocktail 500 μM (metformin for MPP+)) was 1.7 fold and the “sclera to retina transport compared with retina to sclera transport (in words)” value [1] was “significantly higher”. The “transport lower in presence of OCT inhibitor metformin” value ([2]; human cornea) was 2.6 fold, the “transport in presence of transporter inhibitor (in words)” value ([2]; human cornea) was “significantly inhibited” and the “apparent permeability (Papp) across hypoxic vs normoxic tissue (in words)” value [3] was “significantly higher across normoxic SCRPE than hypoxic SCRPE”. For the same compound, the “transport across hypoxic vs normoxic tissue (in words)” value [3] was “significantly decreased in hypoxic calf SCRPE”, the “transport across hypoxic vs normoxic tissue (in words)” value ([3]; listed as MPP+) was “significantly higher across normoxic calf SCRPE than hypoxic calf SCRPE” and the “decrease in cumulative % transport across hypoxic tissue” value ([3]; hypoxic vs normoxic calf SCRPE) was 61%. For the same compound, the “apparent permeability (Papp) across hypoxic vs normoxic tissue (in words)” value [4] was “significantly higher across normoxic cornea than hypoxic cornea”, the “transport across hypoxic vs normoxic tissue (in words)” value [4] was “significantly higher across normoxic calf cornea than hypoxic calf cornea” and the “decrease in cumulative % transport across hypoxic tissue” value ([4]; hypoxic vs normoxic calf cornea) was 49%.

In the case of O=C(O)Cc1ccccc1 [phenyl acetic acid], the “sclera to retina transport in presence of transporter specific inhibitor (in words)” value [1] is reported as “no significant effect of inhibitor”, the “sclera to retina transport compared with retina to sclera transport (in words)” value [1] is reported as “retina to sclera transport was significantly higher than inward transport” and the “inward transport compared with outward transport (in words)” value ([2]; cornea) is reported as “significantly higher than outward transport”. The “transport in presence of transporter inhibitor (in words)” value ([2]; human cornea) was “significantly inhibited”, the “apparent permeability (Papp) across hypoxic vs normoxic tissue (in words)” value [3] was “increased by several fold in hypoxic condition” and the “transport across hypoxic vs normoxic tissue (in words)” value [3] was “increased by several fold in hypoxic condition”. For the same compound, the “transport across hypoxic vs normoxic tissue (in words)” value ([3]; listed as phenylacetic acid) was “significantly higher across hypoxic SCRPE than normoxic SCRPE”, the “apparent permeability (Papp) across hypoxic vs normoxic tissue (in words)” value ([3]; listed as phenylacetic acid) was “significantly higher across hypoxic SCRPE than normoxic SCRPE” and the “apparent permeability (Papp) across hypoxic vs normoxic tissue (in words)” value [4] was “significantly higher across hypoxic cornea than normoxic cornea”. For the same compound, the “transport across hypoxic vs normoxic tissue (in words)” value [4] was “significantly higher than normoxic cornea”.
